In patent US20040242870A1, “Antiviral methods and compounds” (priority 2000, published 2004):
≈ marks a conversion by molar mass, not a printed value.

Assays:
HIV-1 [1] = experiment: HeLa CD4 LTR β-gal HIV-1 attachment assay; type: cell-based; conditions: Human immunodeficiency virus 1, HeLa, read-out: IC50
Experimental: The attachment assay was performed with the HeLa CD4 LTR , β-gal cells available from the AIDS Research and Reference Reagent Repository. […] HeLa CD4 LTR β-gal cells express cell surface CD4 and contain an LTR β-galactosidase reporter construct. Upon infection either the Tat protein incorporated into the virion or new Tat produced following virus integration and transcription trans-activates the LTR β-gal reporter, leading to expression of the β-galactosidase enzyme. HeLa CD4 LTR β-gal cells are routinely cultured with the required selection antibiotics and screened for mycoplasma contamination. Twenty-four h prior to initiation of the assay cells were trypsinized, counted and 1×10^4 cells placed in a 0.2 cm well in media without selection antibiotics. […] A known titer of virus was then added to the wells and the incubation continued for 1 h. At the end of the incubation the wells were washed 6 times with media and the culture continued for 48 h. At 48 h the wells were washed one time with PBS and β-galactosidase enzyme expression determined by chemiluminescence per manufacturers instructions (Tropix Gal-screen™, Tropix, Bedford, Mass.). Compound toxicity was monitored on sister plates using MTS dye reduction.

HIV-1 [2] = experiment: HeLa CD4 LTR β-gal/HL2/3 HIV-1 fusion assay; type: cell-based; conditions: Human immunodeficiency virus 1, HL2/3, read-out: Antiviral Activity IC50
From the text: This assay uses the HeLa CD4 LTR β-gal and HL2-3 cells available from the AIDS Research and Reference Reagent Repository. The HL2/3 are derived from HeLa cells and engineered to express HIV gp120 on their cell surface and Tat protein in their cytoplasma. Thus following gp 120/CD4/coreceptor-mediated fusion; cytoplasmic mixing results in the HL2/3 cell-derived Tat trans-activation of the β-galactosidase reporter. […] Twenty-four h prior to initiation of the assay cells were trypsinized, counted and 5×10^3 cells placed in a 0.2 cm well in media without selection antibiotics. To initiate the fusion assay HeLa CD4 LTR β-gal (5×10^3 cells per 0.2 cm well) were incubated with compound for 1 h at 37° C. HL2/3 cells (5×10^3) were added to the 0.2 cm well and the incubation continued for 48 h. At 48 h the wells were washed 1 time with PBS and β-galactosidase enzyme expression determined by chemiluminescence per manufacturers instructions (Tropix Gal-screen™, Tropix, Bedford, Mass.). Compound toxicity was monitored on sister plates using MTS dye reduction.

HeLa CD4 LTR β-gal cells = experiment: Compound toxicity in attachment assay (MTS dye reduction, sister plates); type: cell-based
Experimental: (§1) At assay termination the assay plates were stained with the soluble tetrazolium-based dye MTS (CellTiter96® Reagent Promega) to determine cell viability and quantify compound toxicity. MTS is metabolized by the mitochondria enzymes of metabolically active cells to a soluble formazan product, allowing the rapid quantitative analysis cell viability and compound cytotoxicity. […] At termination of the assay 20 μL of MTS reagent was added per well and incubated for 4 h at 37° C. Adhesive plate sealers were used in place of the lids, the sealed plate was inverted several times to mix the soluble formazan product and the plate was read spectrophotometrically at 490 nm with a Molecular Devices Vmax plate reader.
The attachment assay was performed with the HeLa CD4 LTR , β-gal cells available from the AIDS Research and Reference Reagent Repository. […] HeLa CD4 LTR β-gal cells express cell surface CD4 and contain an LTR β-galactosidase reporter construct. Upon infection either the Tat protein incorporated into the virion or new Tat produced following virus integration and transcription trans-activates the LTR β-gal reporter, leading to expression of the β-galactosidase enzyme. HeLa CD4 LTR β-gal cells are routinely cultured with the required selection antibiotics and screened for mycoplasma contamination. Twenty-four h prior to initiation of the assay cells were trypsinized, counted and 1×10^4 cells placed in a 0.2 cm well in media without selection antibiotics. Media was removed at 24 h and compound in media placed on the cells and incubated for 15 to 30 min at 37° C. A known titer of virus was then added to the wells and the incubation continued for 1 h. At the end of the incubation the wells were washed 6 times with media and the culture continued for 48 h. At 48 h the wells were washed one time with PBS and β-galactosidase enzyme expression determined by chemiluminescence per manufacturers instructions (Tropix Gal-screen™, Tropix, Bedford, Mass.). Compound toxicity was monitored on sister plates using MTS dye reduction.

HIV-1 strain RoJo = experiment: PBMC time-of-addition assay (RT in cell-free supernatant at 6 days); type: cell-based
Experimental: Peripheral blood monocular cells (PBMCs) were obtained from normal hepatitis and HIV-1 negative donors by ficoll hypaque gradient separation. The mononuclear cells were washed to remove residual separation media, counted, viability determined and resuspended in RPMI 1640 medium supplemented with 15 % FBS (heat inactivated), 2 mM L-glutamine, 100 U/mL penicillin, 100 μg/mL streptomycin, and 10 μg/mL gentamycin with 2 μg/mL phytohemagluttin (PHA) at 1×10^6 cells/mL. The cells were cultured for 48 to 72 h at 37° C., 5% CO2. Following incubation, cells were collected by centrifugation, washed and resuspended in RPMI 1640 supplemented with 15% FBS (heat inactivated), 2 mM L-glutamine, 100 U/mL penicillin, 100 μg/mL streptomycin, and 10 μg/mL gentamycin with 20 U/mL recombinant IL-2 (R & D Systems, Minneapolis, Minn.). IL-2 was included in the culture medium to maintain the cell division initiated by the PHA mitogenic stimulation, and promote optimal growing conditions for the PBMCs. The cultures were then maintained until use by ½ culture volume change with fresh IL-2 containing medium every 3 days.
(§2) Human peripheral blood mononuclear cells from a minimum of 2 donors, that have been blasted with PHA and IL-2, were counted, viability determined by Trypan Blue dye exclusion and mixed in equal ratios. Pooled donors were used to minimize the variability observed between individual donors which results from quantitative and qualitative differences in HIV infection and overall response to the PHA and IL-2 of primary lymphocyte populations. The cells were resuspended at 1×10^6 cells/mL in RPMI 1640 without phenol red supplemented with 15% Fetal Bovine Serum (heat inactivated), 2 mM L-glutamine, 100 U/mL penicillin, 100 μg/mL streptomycin, 10 μg/Ln gentamycin and IL-2 (20 U/mL, R&D Systems, Minneapolis, Minn.). Fifty microliters of cells were then distributed to the inner 60 wells of a 96 well round bottom microtiter culture plate in a standard format developed by the Infectious Disease Research department of Southern Research Institute. Each plate contains cell control wells (cells only), virus control wells (cells plus virus), and experimental wells (drug plus cells plus virus). Alternatively, cells were cultured in T25 cm^2 or T75 cm^2 tissue culture flasks at a starting density of 1×10^6 cells per ml. Serially diluted compounds were added to the microtiter plate or tissue culture flask followed by the appropriate pre-titered strain of HIV-1. For virus replication inhibition experiments the HIV-1 strain RoJo was used. This is a low passage presumable subtype B pediatric isolate with a syncytium inducing (SI) phenotype in MT-2 cells isolated by Southern Research Institute personnel. All samples were assayed in triplicate where possible with an accompanying determination of compound toxicity. The final volume per well in the microtiter plates was 200 μL. The final volume in the tissue culture flask varied depending upon experimental design and flask size. Assays were incubated for 6 days in a humidified atmosphere at 37° C., 5% CO2, after which supernatants were collected, for analysis of RT activity and cell viability by MTS dye reduction. Culture were also examined microscopically, any abnormalities noted, and in the case of tissue culture flasks cell counts and viability determined by Trypan Blue Dye exclusion.
Time-of-addition assays were performed with PBMCs in two ways. For both assays, PBMCs were isolated and cultured under the conditions as described above. Time-of-addition assays were carried out in either a tissue culture flask format (T-75 cm^2) or in microtiter wells. In both cases due to the lack of plastic adherence and heterogeneity of the PBMC population for susceptibility to infection, it was not possible to use complete removal of virus following a timed adsorption to synchronize the infection and limit the assay to a single round of infection. […]

PBMCs [3] = experiment: PBMC cytotoxicity in time-of-addition assay; type: cell-based, Human
From the text: as §2
Time-of-addition assays were performed with PBMCs in two ways. For both assays, PBMCs were isolated and cultured under the conditions as described above. Time-of-addition assays were carried out in either a tissue culture flask format (T-75 cm^2) or in microtiter wells. In both cases due to the lack of plastic adherence and heterogeneity of the PBMC population for susceptibility to infection, it was not possible to use complete removal of virus following a timed adsorption to synchronize the infection and limit the assay to a single round of infection. Therefore, serial washing by partial removal of the media was used to reduce the concentration of virus and compound (if required) in the assay. Compound addition in relationship to antiviral activity was either assessed over a short addition interval immediately before or after virus addition or for up to 72 h post infection. For all assays virus replication was assessed at 6 days of culture by determining RT expression in cell-free supernatants. In the tissue culture flask format cells were counted and Trypan Blue Dye exclusion used to monitor compound cytotoxicity. Cell viability in the 96 well microtiter plate format was determined by MTS dye reduction. AZT was used as a positive control.
as §1, with “Adhesive plate sealers were used in place of the lids, the sealed plate was inverted several times to mix the soluble formazan product and the plate was read spectrophotometrically at 490 nm with a Molecular Devices Vmax plate reader.” left out

PBMCs [4] = experiment: PBMC apoptosis by flow cytometry (APO-BRDU kit); type: cell-based, Human
Experimental: Flow cytometry studies were carried out on PHA/IL-2 induced PBMCs treated for 6 days with the various test compounds. Prior to flow cytometry the PBMCs were washed, counted and 1×10^6 cells resuspended in PBS and stained for CD4 or CD8 surface markers using anti-CD4.PE or CD8.PE (both from PharMingen) for 30 min at 4° C. The PBMC were then washed, fixed (Cytofix) and permeabilized (Cytoperm) followed by staining for apoptosis-related DNA damage. Initial experiments used the BrdU Flow Kit from PharMigen (2354KK). […] For both kits, manufacturers instructions were followed for staining and analysis of the samples. Following the appropriate staining protocol the cells were analyzed using a Becton Dickinson (Bedford, Mass.) FACSSort
In another series of experiments, the IG compounds and cannabidiol treated cells were assessed for the induction of apoptosis (see Tables 8 and 9). […] As IL-2 is an essential component for maintaining the health of PHA induced PBMCs, a second focus of these studies focuses on the effect of the compounds in the absence of IL-2.

[5] = IL-2 supplemented media, 1 μM, HIV +
[6] = IL-2 supplemented media, 1 μM, HIV −

COc1cc(-c2ccc(/N=N/c3ccc4c(S(=O)(=O)O)cc(S(=O)(=O)O)c(N)c4c3O)c(OC)c2)ccc1/N=N/c1ccc2c(S(=O)(=O)O)cc(S(=O)(=O)O)c(N)c2c1O [CSB, Chicago Sky Blue, reference compound]
IC50 (HIV-1 [1]; Experiment 1, pretreat 0 h): 1.1 µg/mL (≈ 1.22 µM)
IC50 (HIV-1 [1]; Experiment 1, pretreat 4 h): 1.71 µg/mL (≈ 1.89 µM)
IC50 (HIV-1 [1]; Experiment 1, pretreat 24 h): 1.3 µg/mL (≈ 1.44 µM)
IC50 (HIV-1 [1]; Experiment 2, pretreat 0 h): 0.17 µg/mL (≈ 0.188 µM)
IC50 (HIV-1 [1]; Experiment 2, pretreat 4 h): 2.11 µg/mL (≈ 2.33 µM)
IC50 (HIV-1 [1]; Experiment 2, pretreat 24 h): 4.7 µg/mL (≈ 5.19 µM)
IC50 (HIV-1 [2]): 1.75 µg/mL (≈ 1.93 µM)
TC50 (HeLa CD4 LTR β-gal cells; Experiment 1, pretreat 0 h): >10 µg/mL
TC50 (HeLa CD4 LTR β-gal cells; Experiment 1, pretreat 4 h): >10 µg/mL
TC50 (HeLa CD4 LTR β-gal cells; Experiment 1, pretreat 24 h): >10 µg/mL
TC50 (HeLa CD4 LTR β-gal cells; Experiment 2, pretreat 0 h): >10 µg/mL
TC50 (HeLa CD4 LTR β-gal cells; Experiment 2, pretreat 4 h): >10 µg/mL
TC50 (HeLa CD4 LTR β-gal cells; Experiment 2, pretreat 24 h): >10 µg/mL

Cc1cn([C@H]2C[C@H](N=[N+]=[N-])[C@@H](CO)O2)c(=O)[nH]c1=O [AZT, reference compound]
enhancement of activity (HIV-1 strain RoJo; 4 h preincubation): 4.6 fold
IC50 (HIV-1 strain RoJo; pre-treat 0 h prior to infection): 1.3 nM
IC50 (HIV-1 strain RoJo; pre-treat 2 h prior to infection): 1.1 nM
IC50 (HIV-1 strain RoJo; pre-treat 4 h prior to infection): 1.1 nM
IC50 (HIV-1 strain RoJo; pre-treat 24 h prior to infection): 3.1 nM
TC50 (PBMCs [3]; 6 h post infection): >4000 nM
TC50 (PBMCs [3]; at infection): >4000 nM
TC50 (PBMCs [3]; −4 h pre (relative to infection)): >4000 nM
% Apoptosis (PBMCs [4]; IL-2 deficient media, 1 μM, HIV +): 13.7%
% Apoptosis (PBMCs [4]; IL-2 deficient media, 1 μM, HIV −): 15.1%
% Apoptosis (PBMCs [4]; [5]): 13.3%
Fold Change (PBMCs [4]; [5]): 0.8
% Apoptosis (PBMCs [4]; [6]): 15.0%
Fold Change (PBMCs [4]; [6]): 1.3

B1: FAS: positive control (kit and Fas ligand) of the apoptosis procedure (protein, UniProt P48023 130-281, looked up)
Tumor necrosis factor ligand …: QIGHPSPPPEKKELRKVAHLTGKSNSRSMPLEWEDTYGIVLLSGVKYKKGGLVINETGLYFVYSKVYFRGQSCNNLPLSHKVYMRNSKYPQDLVMMEGKMMSYCTTGQMWARSSYLGAVFNLTSADHLYVNVSELSLVNFEESQTFFGLYKL
% Apoptosis (PBMCs [4]; IL-2 deficient media, HIV +, positive control, concentration not given): 16.2%
% Apoptosis (PBMCs [4]; IL-2 deficient media, HIV −, positive control, concentration not given): 13.7%
% Apoptosis (PBMCs [4]; IL-2 supplemented media, HIV +, positive control, concentration not given): 17.3%
% Apoptosis (PBMCs [4]; IL-2 supplemented media, HIV −, positive control, concentration not given): 17.8%
